Measurements from patent US10231954B2, “Neurodegenerative therapies” (LYTIX BIOPHARMA AS, priority 2014, dated 2019).

Experiments:
Assay type in all cases: biochemical
Details in all cases: 100 micromolar inhibitor concentration; 100 is no change
NEK6 = NEK6 (Homo sapiens, UniProt Q9HC98); assay: Kinase profiling NEK6
Description: (§1) Any value less that 25 is considered to be highly significant inhibition.

CHK2 = CHK2 (Homo sapiens, UniProt O96017); assay: Kinase profiling CHK2
Description: as §1

PDK1 = molecular target: T1, PDK1 (Homo sapiens, UniProt O15530); assay: Kinase profiling PDK1
T1 sequence (O15530 1-556): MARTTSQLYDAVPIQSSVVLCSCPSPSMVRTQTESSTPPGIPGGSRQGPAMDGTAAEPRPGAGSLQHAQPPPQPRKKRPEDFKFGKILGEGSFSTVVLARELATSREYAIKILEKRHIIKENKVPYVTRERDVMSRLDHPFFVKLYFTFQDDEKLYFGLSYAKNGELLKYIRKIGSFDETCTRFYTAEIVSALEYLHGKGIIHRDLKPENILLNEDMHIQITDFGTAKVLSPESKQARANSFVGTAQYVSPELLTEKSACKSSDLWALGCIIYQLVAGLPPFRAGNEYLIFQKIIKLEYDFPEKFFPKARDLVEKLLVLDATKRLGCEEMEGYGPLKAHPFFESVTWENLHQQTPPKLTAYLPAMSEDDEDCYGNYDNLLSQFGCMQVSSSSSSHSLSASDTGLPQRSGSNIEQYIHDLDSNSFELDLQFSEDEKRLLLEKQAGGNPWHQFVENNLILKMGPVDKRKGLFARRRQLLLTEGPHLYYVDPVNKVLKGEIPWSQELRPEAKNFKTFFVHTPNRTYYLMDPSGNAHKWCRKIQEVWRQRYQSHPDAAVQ
Description: as §1

TTK = molecular target: T2, TTK (Homo sapiens, UniProt P33981); assay: Kinase profiling TTK
T2 sequence (P33981 1-857): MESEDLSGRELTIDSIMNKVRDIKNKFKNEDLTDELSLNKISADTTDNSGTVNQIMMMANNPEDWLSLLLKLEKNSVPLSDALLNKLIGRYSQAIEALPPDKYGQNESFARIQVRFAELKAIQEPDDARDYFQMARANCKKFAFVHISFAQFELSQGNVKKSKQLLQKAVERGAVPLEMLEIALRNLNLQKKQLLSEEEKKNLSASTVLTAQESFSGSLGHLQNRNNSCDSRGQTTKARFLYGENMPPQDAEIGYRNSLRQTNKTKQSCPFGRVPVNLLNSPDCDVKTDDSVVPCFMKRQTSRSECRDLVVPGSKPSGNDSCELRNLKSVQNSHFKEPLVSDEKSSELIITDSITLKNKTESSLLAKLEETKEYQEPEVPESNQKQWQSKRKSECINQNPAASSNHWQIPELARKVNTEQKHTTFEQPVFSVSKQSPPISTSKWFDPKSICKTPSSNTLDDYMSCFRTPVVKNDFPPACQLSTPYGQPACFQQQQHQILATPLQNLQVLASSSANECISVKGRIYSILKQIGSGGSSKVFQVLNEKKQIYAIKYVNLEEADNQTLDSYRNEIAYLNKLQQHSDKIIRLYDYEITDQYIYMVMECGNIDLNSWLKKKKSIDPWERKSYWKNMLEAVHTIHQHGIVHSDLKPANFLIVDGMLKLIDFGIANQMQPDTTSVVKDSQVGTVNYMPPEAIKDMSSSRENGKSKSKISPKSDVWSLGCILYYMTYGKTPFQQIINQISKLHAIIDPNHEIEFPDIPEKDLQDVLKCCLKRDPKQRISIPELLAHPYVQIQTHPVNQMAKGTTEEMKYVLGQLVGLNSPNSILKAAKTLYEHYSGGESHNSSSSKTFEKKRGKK
Description: as §1

PLK1 = PLK1 (Homo sapiens, UniProt P53350); assay: Kinase profiling PLK1
Description: as §1

RSK1 = RSK1 (Homo sapiens, UniProt Q15418); assay: Kinase profiling RSK1
Description: as §1

JNK1 = JNK1 (Homo sapiens, UniProt P45983); assay: Kinase profiling JNK1
Description: as §1

HER4 = HER4 (Homo sapiens, UniProt Q15303); assay: Kinase profiling HER4
Description: as §1

TrkA = TrkA (Homo sapiens, UniProt P04629); assay: Kinase profiling TrkA
Description: as §1

DYRK1A = DYRK1A (Homo sapiens, UniProt Q13627); assay: DYRK 1A assay (kinase profiling)
Method: Assays are stopped by addition of 5 μl of 0.5 M (3%) orthophosphoric acid and then harvested onto P81 Unifilter plates with a wash buffer of 50 mM orthophosphoric acid.
as §1

CK2 = assay: Kinase profiling CK2
Description: as §1

MKK1 = MKK1 (Homo sapiens, UniProt Q02750); assay: Kinase profiling MKK1
Description: as §1

PAK4 = PAK4 (Homo sapiens, UniProt O96013); assay: Kinase profiling PAK4
Description: as §1

ERK2 = ERK2 (Homo sapiens, UniProt P28482); assay: Kinase profiling ERK2
Description: as §1

RSK2 = RSK2 (Homo sapiens, UniProt P51812); assay: Kinase profiling RSK2
Description: as §1

CAMK1 = CAMK1 (Homo sapiens, UniProt Q14012); assay: Kinase profiling CAMK1
Description: as §1

Src = Src (Homo sapiens, UniProt P12931); assay: Kinase profiling Src
Description: as §1

p38b MAPK = p38b MAPK (Homo sapiens, UniProt Q15759); assay: Kinase profiling p38b MAPK
Description: as §1

Chain of RSK1 (Q15418 whole entry, species assumed): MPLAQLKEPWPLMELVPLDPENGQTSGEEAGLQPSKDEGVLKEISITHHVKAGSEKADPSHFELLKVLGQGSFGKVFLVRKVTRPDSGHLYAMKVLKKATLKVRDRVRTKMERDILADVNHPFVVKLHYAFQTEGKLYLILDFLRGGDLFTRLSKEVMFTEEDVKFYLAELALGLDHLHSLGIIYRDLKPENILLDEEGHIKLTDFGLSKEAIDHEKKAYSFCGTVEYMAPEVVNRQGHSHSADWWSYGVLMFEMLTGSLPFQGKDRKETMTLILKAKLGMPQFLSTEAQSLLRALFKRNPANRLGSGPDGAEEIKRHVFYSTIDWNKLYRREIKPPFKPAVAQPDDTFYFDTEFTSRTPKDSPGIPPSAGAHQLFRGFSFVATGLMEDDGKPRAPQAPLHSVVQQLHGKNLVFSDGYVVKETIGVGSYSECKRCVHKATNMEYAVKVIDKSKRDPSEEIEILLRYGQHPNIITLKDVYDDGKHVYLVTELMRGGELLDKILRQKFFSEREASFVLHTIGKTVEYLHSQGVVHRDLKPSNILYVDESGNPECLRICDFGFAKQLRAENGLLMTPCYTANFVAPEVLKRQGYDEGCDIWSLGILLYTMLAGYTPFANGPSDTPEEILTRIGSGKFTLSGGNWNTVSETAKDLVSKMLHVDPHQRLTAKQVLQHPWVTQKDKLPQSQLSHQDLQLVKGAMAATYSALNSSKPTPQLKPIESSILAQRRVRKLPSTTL
Chain of PLK1 (P53350 whole entry, species assumed): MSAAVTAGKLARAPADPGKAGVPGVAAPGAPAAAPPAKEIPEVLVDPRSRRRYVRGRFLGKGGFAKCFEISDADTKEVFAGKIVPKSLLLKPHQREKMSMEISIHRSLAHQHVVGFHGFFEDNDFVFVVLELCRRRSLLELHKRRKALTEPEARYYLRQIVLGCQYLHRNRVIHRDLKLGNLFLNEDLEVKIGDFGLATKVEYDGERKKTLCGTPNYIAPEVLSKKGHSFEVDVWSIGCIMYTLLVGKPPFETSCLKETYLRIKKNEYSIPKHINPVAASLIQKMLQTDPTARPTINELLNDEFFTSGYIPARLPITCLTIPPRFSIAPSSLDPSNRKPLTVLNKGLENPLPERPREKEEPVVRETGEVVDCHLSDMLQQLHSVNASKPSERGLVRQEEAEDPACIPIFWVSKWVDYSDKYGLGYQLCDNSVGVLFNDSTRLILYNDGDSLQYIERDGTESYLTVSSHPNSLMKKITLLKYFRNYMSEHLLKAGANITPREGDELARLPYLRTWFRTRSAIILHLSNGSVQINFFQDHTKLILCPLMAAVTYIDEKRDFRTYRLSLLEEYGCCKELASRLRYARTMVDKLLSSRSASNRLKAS
Chain of RSK2 (P51812 whole entry, species assumed): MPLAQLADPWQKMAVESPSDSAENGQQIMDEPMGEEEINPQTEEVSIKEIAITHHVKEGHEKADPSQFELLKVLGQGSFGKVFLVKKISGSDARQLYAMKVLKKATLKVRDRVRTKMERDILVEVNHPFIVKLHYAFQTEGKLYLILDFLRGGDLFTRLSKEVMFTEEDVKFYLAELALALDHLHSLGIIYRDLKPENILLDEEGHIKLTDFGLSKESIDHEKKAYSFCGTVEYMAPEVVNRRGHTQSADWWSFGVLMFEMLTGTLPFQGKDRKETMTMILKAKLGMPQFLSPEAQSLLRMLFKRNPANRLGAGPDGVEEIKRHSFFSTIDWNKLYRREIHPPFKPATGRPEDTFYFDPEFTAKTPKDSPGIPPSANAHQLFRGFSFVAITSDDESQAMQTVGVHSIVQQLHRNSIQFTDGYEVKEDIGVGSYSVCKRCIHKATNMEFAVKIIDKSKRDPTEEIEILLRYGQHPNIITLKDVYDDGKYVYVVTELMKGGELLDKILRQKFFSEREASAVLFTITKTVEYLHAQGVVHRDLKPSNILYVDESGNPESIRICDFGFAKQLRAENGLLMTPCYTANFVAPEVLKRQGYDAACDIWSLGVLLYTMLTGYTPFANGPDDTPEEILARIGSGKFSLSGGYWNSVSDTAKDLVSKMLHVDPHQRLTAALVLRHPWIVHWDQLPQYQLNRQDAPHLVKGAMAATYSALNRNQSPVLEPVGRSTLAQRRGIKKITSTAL
Chain of CHK2 (O96017 whole entry, species assumed): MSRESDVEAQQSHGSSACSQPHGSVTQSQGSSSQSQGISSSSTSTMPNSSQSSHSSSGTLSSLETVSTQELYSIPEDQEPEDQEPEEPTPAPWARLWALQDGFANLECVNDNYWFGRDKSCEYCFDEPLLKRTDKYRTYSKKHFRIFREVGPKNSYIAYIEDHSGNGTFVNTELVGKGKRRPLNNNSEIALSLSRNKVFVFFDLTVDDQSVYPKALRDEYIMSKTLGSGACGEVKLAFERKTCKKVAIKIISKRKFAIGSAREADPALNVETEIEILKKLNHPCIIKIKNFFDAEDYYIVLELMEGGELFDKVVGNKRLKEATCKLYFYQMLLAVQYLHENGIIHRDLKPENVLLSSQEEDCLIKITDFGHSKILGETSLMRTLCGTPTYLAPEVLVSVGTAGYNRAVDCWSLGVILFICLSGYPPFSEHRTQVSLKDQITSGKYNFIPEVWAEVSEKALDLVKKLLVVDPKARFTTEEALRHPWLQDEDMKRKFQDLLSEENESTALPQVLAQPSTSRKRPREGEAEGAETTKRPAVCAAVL
Chain of MKK1 (Q02750 whole entry, species assumed): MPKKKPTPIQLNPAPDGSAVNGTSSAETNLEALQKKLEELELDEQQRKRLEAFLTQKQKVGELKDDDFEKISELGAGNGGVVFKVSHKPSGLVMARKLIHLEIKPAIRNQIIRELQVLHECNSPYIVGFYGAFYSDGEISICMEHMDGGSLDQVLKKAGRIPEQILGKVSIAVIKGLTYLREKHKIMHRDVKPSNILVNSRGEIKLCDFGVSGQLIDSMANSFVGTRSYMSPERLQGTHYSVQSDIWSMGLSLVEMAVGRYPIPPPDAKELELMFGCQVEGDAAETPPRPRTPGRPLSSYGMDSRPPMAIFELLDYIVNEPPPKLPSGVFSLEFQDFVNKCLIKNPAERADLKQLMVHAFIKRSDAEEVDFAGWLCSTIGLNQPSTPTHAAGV
Chain of CAMK1 (Q14012 whole entry, species assumed): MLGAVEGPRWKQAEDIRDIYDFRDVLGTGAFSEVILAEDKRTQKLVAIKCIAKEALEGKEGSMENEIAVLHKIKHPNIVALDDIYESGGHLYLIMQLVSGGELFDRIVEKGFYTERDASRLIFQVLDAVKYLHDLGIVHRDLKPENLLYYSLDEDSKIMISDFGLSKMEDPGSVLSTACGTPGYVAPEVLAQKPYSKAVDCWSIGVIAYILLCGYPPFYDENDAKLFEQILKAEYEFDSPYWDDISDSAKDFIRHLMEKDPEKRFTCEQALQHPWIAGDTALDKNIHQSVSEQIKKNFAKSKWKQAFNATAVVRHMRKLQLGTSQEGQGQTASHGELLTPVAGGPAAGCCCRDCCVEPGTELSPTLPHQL
Chain of HER4 (Q15303 26-1308, species assumed): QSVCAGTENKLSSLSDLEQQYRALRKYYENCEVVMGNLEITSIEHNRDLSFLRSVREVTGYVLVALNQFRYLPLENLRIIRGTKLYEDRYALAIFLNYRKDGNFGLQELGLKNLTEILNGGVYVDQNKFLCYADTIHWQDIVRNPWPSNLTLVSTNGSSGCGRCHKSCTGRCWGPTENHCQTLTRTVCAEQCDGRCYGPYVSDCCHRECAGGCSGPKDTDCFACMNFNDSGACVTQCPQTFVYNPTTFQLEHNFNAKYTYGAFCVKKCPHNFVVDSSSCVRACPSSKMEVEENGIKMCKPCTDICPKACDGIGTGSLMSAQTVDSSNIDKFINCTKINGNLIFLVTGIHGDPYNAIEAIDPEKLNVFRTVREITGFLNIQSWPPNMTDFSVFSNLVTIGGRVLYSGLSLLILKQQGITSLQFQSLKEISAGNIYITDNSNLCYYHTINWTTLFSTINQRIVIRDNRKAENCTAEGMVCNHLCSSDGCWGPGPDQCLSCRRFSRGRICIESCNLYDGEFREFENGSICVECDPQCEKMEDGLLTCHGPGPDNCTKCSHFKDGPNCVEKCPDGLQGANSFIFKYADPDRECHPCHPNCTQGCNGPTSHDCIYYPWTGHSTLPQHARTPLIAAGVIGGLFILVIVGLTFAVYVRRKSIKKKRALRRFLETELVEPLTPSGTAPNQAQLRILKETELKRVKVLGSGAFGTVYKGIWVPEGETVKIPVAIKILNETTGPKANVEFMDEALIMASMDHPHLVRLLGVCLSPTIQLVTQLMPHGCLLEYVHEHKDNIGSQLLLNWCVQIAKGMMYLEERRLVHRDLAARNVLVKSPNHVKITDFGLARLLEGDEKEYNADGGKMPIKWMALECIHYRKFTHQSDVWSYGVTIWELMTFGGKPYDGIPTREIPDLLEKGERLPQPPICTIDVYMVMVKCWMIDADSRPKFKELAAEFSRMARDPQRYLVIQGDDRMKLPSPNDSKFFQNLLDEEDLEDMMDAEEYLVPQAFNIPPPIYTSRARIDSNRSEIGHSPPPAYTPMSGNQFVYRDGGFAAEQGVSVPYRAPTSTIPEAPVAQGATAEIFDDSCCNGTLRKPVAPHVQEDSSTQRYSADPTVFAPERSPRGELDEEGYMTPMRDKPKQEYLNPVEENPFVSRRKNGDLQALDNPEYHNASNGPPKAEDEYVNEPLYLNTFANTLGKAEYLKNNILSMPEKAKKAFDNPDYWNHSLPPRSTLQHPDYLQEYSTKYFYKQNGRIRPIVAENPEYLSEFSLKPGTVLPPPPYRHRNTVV
Chain of p38b MAPK (Q15759 whole entry): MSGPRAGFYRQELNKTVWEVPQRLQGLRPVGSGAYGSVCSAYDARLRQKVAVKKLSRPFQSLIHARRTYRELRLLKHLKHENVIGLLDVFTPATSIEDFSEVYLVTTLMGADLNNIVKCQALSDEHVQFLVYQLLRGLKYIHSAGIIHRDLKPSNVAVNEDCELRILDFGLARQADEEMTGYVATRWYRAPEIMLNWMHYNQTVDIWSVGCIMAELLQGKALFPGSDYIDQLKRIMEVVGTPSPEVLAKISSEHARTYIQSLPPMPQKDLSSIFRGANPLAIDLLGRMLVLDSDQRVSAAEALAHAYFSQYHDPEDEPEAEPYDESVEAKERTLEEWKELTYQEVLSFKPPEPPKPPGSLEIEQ

Structure (SMILES): O=C(Nc1nc2ccc(O)cc2s1)c1cccnc1 [Compound 08-44]
- residual kinase activity, NEK6 (NEK6): 84
- residual kinase activity, CHK2 (CHK2): 16
- residual kinase activity, PDK1 (PDK1): 77
- residual kinase activity, TTK (TTK): 22
- residual kinase activity, PLK1 (PLK1): 63
- residual kinase activity, RSK1 (RSK1): 41
- residual kinase activity, JNK1 (JNK1): 102
- residual kinase activity, HER4 (HER4): 17
- residual kinase activity, TrkA (TrkA): 71
- residual kinase activity, DYRK1A (DYRK1A): 8
- residual kinase activity, CK2 (CK2): 19
- residual kinase activity, MKK1 (MKK1): 67
- residual kinase activity, PAK4 (PAK4): 64
- residual kinase activity, ERK2 (ERK2): 75
- residual kinase activity, RSK2 (RSK2): 56
- residual kinase activity, CAMK1 (CAMK1): 42
- residual kinase activity, Src (Src): 72
- residual kinase activity, p38b MAPK (p38b MAPK): 89
